From US10675251B2, “Particles containing branched polymers” (The University of Liverpool, priority 2014, dated 2020)

Test: Drug loading (encapsulation) in co-nanoprecipitated particles
Assay type: physicochemical
Protocol: During a typical nanoparticle preparation, 5.5 mL of a 1 mg/mL acetone solution of efavirenz, ritonavir or lopinavir is added to a vial and left to evaporate overnight. To this vial 25 mg of the branched polymer and 25 mg of the polymer diblock were added and dissolved in 10 mL of acetone during 6-8 hours to ensure complete solubilisation. 1 mL of the 5 mg/mL solution of polymers and dissolved drug was added to 5 mL of stirring distilled water (500 rpm) and left for 24 hours for complete acetone evaporation (final concentration of polymer 1 mg/mL). During a typical nanoparticle preparation 5.5 mL of a 1 mg/mL acetone solution of irinotecan was added to a vial and left to evaporate overnight. To this vial, 25 mg of the branched polymer and 25 mg of the polymer diblock were added and dissolved in 10 mL of acetone during 6-8 hours to ensure complete solubilisation. 1 mL of the 5 mg/mL solution of polymers and dissolved drug was added to 5 mL of stirring water (500 rpm) and left for 24 hours for complete acetone evaporation.

| Compound | drug loading achieved |
| --- | --- |
| O=C1Nc2ccc(Cl)cc2[C@@](C#CC2CC2)(C(F)(F)F)O1 [Efavirenz] | 25 wt % |
| CCc1c2c(nc3ccc(OC(=O)N4CCC(N5CCCCC5)CC4)cc13)-c1cc3c(c(=O)n1C2)COC(=O)[C@]3(O)CC [Irinotecan] | effectively encapsulated at 10 wt % or 15 wt % |
